Reference: patent publication EP4759817A1, “HETEROARYL COMPOUND, PREPARATION METHOD THEREFOR, AND USE THEREOF IN MEDICINE” (Jiangsu Hengrui Pharmaceuticals Co., Ltd., priority 2023, dated 2025)

What was measured:
[1] = target: T1, Recombinant human PRMT5: MEP50 protein (Homo sapiens, UniProt O14744); assay: Inhibitory activity against human PRMT5 enzymatic activity (HTRF quantification of SAH, +MTA); assay type: biochemical; details: +1 µM MTA; histone H4 peptide substrate (1-21), SAM; 37°C 120 min
T1 construct: purchased active motif 31521
T1 sequence (O14744 whole entry): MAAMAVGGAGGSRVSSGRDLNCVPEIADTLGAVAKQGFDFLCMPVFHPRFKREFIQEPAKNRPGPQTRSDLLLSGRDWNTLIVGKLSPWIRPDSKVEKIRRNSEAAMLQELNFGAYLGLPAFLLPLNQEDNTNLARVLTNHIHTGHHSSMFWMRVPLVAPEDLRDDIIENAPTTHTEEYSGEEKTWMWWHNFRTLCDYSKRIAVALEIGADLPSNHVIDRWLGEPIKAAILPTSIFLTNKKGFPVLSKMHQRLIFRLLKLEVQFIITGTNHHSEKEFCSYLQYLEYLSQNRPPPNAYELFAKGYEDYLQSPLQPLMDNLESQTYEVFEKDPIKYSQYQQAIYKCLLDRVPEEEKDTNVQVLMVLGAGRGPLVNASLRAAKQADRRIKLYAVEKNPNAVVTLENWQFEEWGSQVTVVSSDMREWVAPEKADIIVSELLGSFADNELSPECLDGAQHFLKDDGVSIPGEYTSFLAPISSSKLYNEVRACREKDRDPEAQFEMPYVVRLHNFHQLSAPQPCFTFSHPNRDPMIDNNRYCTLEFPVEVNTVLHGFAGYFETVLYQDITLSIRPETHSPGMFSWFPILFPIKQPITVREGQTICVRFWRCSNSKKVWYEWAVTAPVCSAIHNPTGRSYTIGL
T1 sequence (Q9BQA1 whole entry partner): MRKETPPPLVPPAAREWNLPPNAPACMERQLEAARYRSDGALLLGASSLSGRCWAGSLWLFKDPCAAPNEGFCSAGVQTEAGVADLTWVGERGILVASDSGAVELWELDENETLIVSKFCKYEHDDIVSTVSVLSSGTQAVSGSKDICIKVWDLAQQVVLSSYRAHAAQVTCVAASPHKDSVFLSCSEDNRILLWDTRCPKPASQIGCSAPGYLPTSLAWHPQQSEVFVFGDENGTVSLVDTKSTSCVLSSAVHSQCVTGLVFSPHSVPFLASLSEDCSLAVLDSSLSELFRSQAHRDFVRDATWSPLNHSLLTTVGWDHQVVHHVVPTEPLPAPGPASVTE
Method: • 1. Recombinant human PRMT5: MEP50 protein (active motif, 31521) • 2. EPIgeneous Methyltransferase kit (cisbio, 62SAHPEH) • 3. 96-well plate (Sangon Biotech, F610960-0010) • 4. 384-well white plate (Perkin Elmer, 6007290) • 5. 1 M Tris-HCl [pH 8.5] (Sangon Biotech, B548141) • 6. Histone H4 peptide substrates (1-21) (BPS bioscience, 52014) • 7. 5'-deoxy-5'-(methylthio)adenosine (Aladdin, D168979-25 mg) • 8. Tween-20 (Sangon Biotech, A100777-0500) • 9. DMSO (Sigma, D2650) • 10. Incubator (Shanghai Boxun Medical Biological Instrument Corp.) • 11. PHERAstar FS microplate reader (BMG Labtech)
PRMT5 can induce the transfer of a methyl group from S-adenosylmethionine (SAM) to a histone H4 peptide substrate (1-21), generating S-adenosylhomocysteine (SAH). In this experiment, the amount of SAH produced in the reaction is quantified using a Homogeneous Time-Resolved Fluorescence (HTRF) method to evaluate the inhibitory activity of compounds against PRMT5 enzymatic activity.
The sample diluent containing (or not containing) 1 µM 5 '-deoxy-5' - (methylthiyl) adenosine (MTA) was prepared using the EPIgeneous Diluent Buffer from the EPIgeneous Methyltransferase kit. With reference to the instructions, SAM and SAH standards were serially diluted and dispensed at 10 µL per well (in duplicate for each concentration). 2 µL of EPIgeneous Detection Buffer 1 was added to each well, and the plate was centrifuged, shaken to mix thoroughly, and placed at room temperature for 10 min. The SAH d2 Reagent was diluted 32-fold with EPIgeneous Detection Buffer 2, and 4 µL of the diluted SAH-d2 solution was added to each well. The plate was centrifuged and shaken for 2 min to mix thoroughly. The SAH Tb Cryptate Antibody was diluted 50-fold in EPIgeneous Detection Buffer 2. 4 µL of the diluted Tb Cryptate Antibody solution was added to each well, and the plate was centrifuged, shaken for 2 min to mix thoroughly, and left to stand at room temperature for 60 min, followed by reading on a PHERAstar FS microplate reader to obtain the 665/620 ratio. Plotting SAH concentration against the ratio to generate an x-y curve yields a corresponding calculation formula.
Reaction buffer (1×): 50 mM Tris-HCl [pH 8.5], 1 mM DTT, 0.005% Tween-20.
Compound preparation: a 20 mM solution of test compound in 100% DMSO was diluted in 100% DMSO to 1 mM as the highest concentration, and the solution at this concentration was then subjected to a 10-point, 3-fold serial dilution in 100% DMSO in a 96-well plate. Wells containing 100% DMSO served as the blank control. The above-described serially diluted compounds and the 100% DMSO were diluted 20-fold with the reaction buffer to prepare 5× compound solutions, which were mixed thoroughly for use.
The PRMT5:MEP50 was diluted in the reaction buffer to a final concentration of 12.5 nM. Then, 4 µL of the 12.5 nM PRMT5:MEP50 solution was added to each well of a 384-well plate. Wells containing 4 µL of the reaction buffer served as the negative control wells. 2 µL of the 5× compound solution was added to each well. For the negative control wells (no enzyme, no compound) and the positive control wells (no compound), 2 µL of 5% DMSO was added. The plate was sealed with a membrane, centrifuged, shaken for 2 min to mix thoroughly, and placed at room temperature for 20 min.
Preparation of substrate mixture solution: The substrate mixture solution containing 1.5 µM histone H4 peptide substrate (1-21) and 2.5 µM SAM, or 1.5 µM histone H4 peptide substrate (1-21), 2.5 µM SAM and 2.5 µM MTA was prepared in the reaction buffer.
The reaction was initiated by adding 4 µL of the substrate mixture solution (-/+ MTA) to each well. The plate was sealed with a membrane, centrifuged, shaken for 2 min to mix thoroughly, and incubated at 37°C for 120 min in a constant temperature incubator.
Detection: The detection was performed by using the EPIgeneous Methyltransferase kit. […]

[2] = tested on: Lu99 xenografts; assay: Efficacy test in subcutaneous Lu99 xenograft model; assay type: in vivo, NUNU nude mice; details: i.g., qd/21d
Text: To evaluate the inhibitory effect of the compounds of the present disclosure on tumour growth in a subcutaneous xenograft model using the human lung giant cell carcinoma cell line Lu99 in female NUNU nude mice
Using a solution of 20% PEG400 + 70% (10% TPGS) + 5%DMSO+5% (1% HPMCK100LV) solution
Laboratory animals: Female NUNU nude mice, purchased from Zhejiang Vital River Laboratory Animal Technology Co., Ltd. (License No.: SCXK(Zhe)2024-0001; animal qualification certificate No.: 20240524Abzz0619000789), weighing approximately 20-24 g at arrival.
Housing conditions: The mice were housed 5 per cage under a 12/12 h light/dark cycle, constant temperature of 23°C ± 1°C, humidity of 50%-60%, with free access to food and water.
After acclimatisation, NUNU nude mice were grouped and administered as follows: Table 4. Animal grouping and dosing regimen for in vivo efficacy experiment
(§1) 0.1 ml (5 × 10^5 cells ± 50% matrigel) of Lu99 cells (cell-to-matrigel volume ratio = 1 : 1) in the logarithmic growth phase was subcutaneously injected into the right upper limb of each mouse. When the mean tumour volume reached 75 mm^3, mice were randomly assigned to 4 groups (12 mice per group) based on tumour volume and body weight, as shown in Table 4. The day of grouping was designated as D0, and oral gavage administration was initiated once or twice daily for a total of 21 days. The 21st day after administration was designated as D21 (Table 5). Tumour volume and body weight of tumour-bearing mice were measured twice weekly using a calliper and a balance, respectively, and the data were recorded.
All data were plotted and statistically analysed using Excel and GraphPad Prism 10 software.
Tumour volume (V) was calculated using the formula: V = 1/2 × a × b^2, where a represents the length and b represents the width.
Relative tumour proliferation rate: T/C (%) = (T-T0)/(C-C0) × 100(%), where T and C are the tumour volumes of the treated and control groups at the end of the experiment, and T0 and C0 are the corresponding tumour volumes at the start of the experiment.
Tumour growth inhibition: TGI (%) = 100-T/C (%).

[3] = Body weight and survival of tumour-bearing mice in the Lu99 efficacy test; assay type: in vivo, NUNU nude mice; details: for Surviving animals/group: i.g., qd/21d
Method: as §1

SMILES | IC50 [1] | Mean tumour volume (mm^3) D21 ([2]; 50 mpk) | TGI (%) D21 ([2]; 50 mpk) | Mean tumour volume (mm^3) D21 ([2]; 100 mpk) | TGI (%) D21 ([2]; 100 mpk) | Mean tumour volume (mm^3) D21 ([2]; 200 mpk) | TGI (%) D21 ([2]; 200 mpk) | effect on body weight of the mice ([3]; 50, 100 and 200 mpk/qd, once daily for 21 days) | Surviving animals/group ([3]; 50 mpk) | Surviving animals/group ([3]; 100 mpk) | Surviving animals/group ([3]; 200 mpk)
[2H]C([2H])([2H])n1ncc(-c2ccc3c(=O)[nH]nc(CN)c3c2)c1-c1c(F)cc2c(c1C#N)N1CCC[C@H]1CO2 (single isomer, unassigned) [Compound 8-p1] | 5.19 nM |  |  |  |  |  |  |  |  |  | 
[2H]C([2H])([2H])n1ncc(-c2ccc3c(=O)[nH]nc(CN)c3c2)c1-c1c(F)cc2c(c1C#N)O[C@H]1CC[C@H]1O2 (single isomer, unassigned) [Compound 2-p1] | 5.23 nM | 574 mm^3 | 72% | 256 mm^3 | 90% | 165 mm^3 | 95% | no effects on body weight | 12/12 | 12/12 | 12/12
Cn1ncc(-c2ccc3c(=O)[nH]nc(CN)c3c2)c1-c1c(F)cc2c(c1C#N)O[C@H]1CC[C@H]1O2 (atropisomer, axis not shown; (M)) [Compound 1-p1, (M)-(2aS,8aR)-5-(4-(4-(aminomethyl)-1-oxo-1,2-dihydrophthalazin-6-yl)-1-methyl-1H-pyrazol-5-yl)-6-fluoro-1,2,2a,8a-tetrahydrobenzo[b]cyclobuta[e][1,4]dioxine-4-carbonitrile] | 4.91 nM |  |  |  |  |  |  |  |  |  | 
